Reference: patent publication US20260174714A1, “NONHUMAN ANIMAL AND USE THEREOF” (THE JIKEI UNIVERSITY, priority 2022, published 2026)

Columns and labels:
[1] = tested on: foreign proximal renal tubular cells; settings: in vivo, ip
From the text: In Experimental Example 1, instead of the collected cells derived from the EGFP mouse embryonic E14 kidney, GFP-expressing human nephron precursor cells were directly injected into a subcapsular region of the kidney of a neonatal mouse aged 0 to 1 day after birth. The foreign nephrons in the cell injection region 2 weeks after the transplantation were examined by immunostaining (see (A) of FIG. 9). As shown in (A) of FIG. 9, the formation of glomeruli and renal tubules derived from GFP-expressing human nephron precursor cells was confirmed. In addition, cisplatin was intraperitoneally administered to a mouse individual having a chimeric kidney 2 weeks after the transplantation of the GFP-expressing human nephron precursor cells, and the regenerated nephrons were recovered 48 hours later and evaluated by immunofluorescence staining.

regenerated nephrons = settings: mouse, in vivo, ip
From the text: (§1) This method has a low accuracy in the cell injection site and a low survival rate of the host fetus, and thus, a simpler method is required to establish the method as an evaluation model. Therefore, the collected cells derived from the EGFP mouse embryonic E14 kidney were directly injected into a subcapsular region of the kidney of a neonatal mouse aged 0 to 1 day after birth (see FIG. 3) by utilizing a fact that nephron precursor cells remain until about 3 days after birth and the renal development continues in mice (see Hartman H A, Lai H L. Cessation of renal morphogenesis in mice. 2007; 310(2): 379-87).
(§2) Cisplatin was intraperitoneally administered to a mouse individual having a chimeric kidney 2 weeks after transplantation, which was created in Experimental Example 1, and the regenerated nephrons were recovered 48 hours later and evaluated by immunofluorescence staining.
In addition, single-cell RNA sequencing was performed on the recovered sample.

[2] = tested on: foreign proximal renal tubular cells; settings: mouse, in vivo, ip
From the text: as §1, §2

## N.N.[Cl][Pt][Cl] [cisplatin]
[1]
  expression of human Kim-1 in the foreign proximal renal tubular cells: expression of human Kim-1 was confirmed
Regenerated nephrons
  expression of disorder-related genes other than Kim-1: enhanced expression of disorder-related genes other than Kim-1 was also confirmed
[2]
  expression of Kim-1 in the foreign proximal renal tubular cells: dose-dependent expression of Kim-1 was confirmed
